Laboratory results as given in the Biogen ADME set (Fang et al. 2023).
Values after ≈ are worked out from the molar mass of the structure shown.

Conditions: for aqueous solubility: pH 6.8

| Compound | intrinsic clearance, human liver microsomes | intrinsic clearance, rat liver microsomes | MDR1-MDCK efflux ratio | aqueous solubility | fraction unbound, human plasma | fraction unbound, rat plasma |
| --- | --- | --- | --- | --- | --- | --- |
| O=C(Nc1nc2ccccc2[nH]1)c1ccc(-n2cccc2)cc1 | – | – | 0.359 | – | – | – |
| NC(=O)COc1ncnc2ccccc12 | ≤ 4.74 mL/min/kg | ≤ 10.7 mL/min/kg | 1.27 | 47.9 µg/mL (≈ 235 µM) | – | – |
| COc1ccc(-c2nc(CC(N)=O)sc2C)cc1.Cl | 166 mL/min/kg | 111 mL/min/kg | 0.246 | 30.3 µg/mL | – | – |
| O=C(CCCOc1ccccc1)N1CCCC1 | 10.4 mL/min/kg | 295 mL/min/kg | 0.631 | 30.5 µg/mL (≈ 131 µM) | – | – |
| CCCCN(C)C(=O)c1cn(-c2ccc(C)c(C)c2)nn1 | 127 mL/min/kg | 530 mL/min/kg | – | 8.81 µg/mL (≈ 30.8 µM) | – | – |
| Cc1ccc(CNC(=O)c2cccs2)cn1 | ≤ 4.74 mL/min/kg | ≤ 10.7 mL/min/kg | 0.842 | 52.3 µg/mL (≈ 225 µM) | – | – |
| Cc1noc(C2CCN(CCc3ccccc3)CC2)n1 | 18 mL/min/kg | 448 mL/min/kg | 0.492 | 63.8 µg/mL (≈ 235 µM) | – | – |
| Cc1ccc2cccc(OCC(=O)N(C)c3ccccc3)c2n1 | 126 mL/min/kg | 482 mL/min/kg | 1.52 | 55 µg/mL (≈ 179 µM) | – | – |
| Cc1noc(-c2ccccc2C(=O)O)n1 | ≤ 4.74 mL/min/kg | ≤ 10.7 mL/min/kg | – | 35.3 µg/mL (≈ 173 µM) | – | – |
| Cc1nn(-c2ccc(F)cc2)c2ncc(C(=O)Nc3nc(C4CC4)cs3)cc12 | 5.68 mL/min/kg | 32.4 mL/min/kg | – | 5.35 µg/mL (≈ 13.6 µM) | – | – |
| Cn1c(NC(=O)c2ccn(COc3ccccc3)n2)nc2ccccc21 | – | – | – | 5.8 µg/mL (≈ 16.7 µM) | – | – |
| Cc1cc(C(=O)N(C)c2nc3ccccc3s2)cc(O)n1 | ≤ 4.74 mL/min/kg | 16.1 mL/min/kg | 4 | – | – | – |
| NC(=O)c1cnc(NC2CC2)nc1CCNC(=O)C1(c2cccc(F)c2)CCOCC1 | 37.7 mL/min/kg | 88.6 mL/min/kg | 32.6 | 77.3 µg/mL (≈ 181 µM) | – | – |
| c1cnn(-c2ccc(-c3ccc(NC4CC4)nn3)cc2)c1 | – | – | – | 0.78 µg/mL (≈ 2.81 µM) | – | – |
| Cc1oc2cc(OCC(=O)Nc3nccs3)ccc2c(=O)c1Oc1ccc(F)cc1 | – | – | 0.97 | 0.5 µg/mL (≈ 1.17 µM) | – | – |
| CNC(=O)c1cccc(NC(=O)N2CCC(Oc3ccccc3Cl)CC2)c1 | 6.6 mL/min/kg | 223 mL/min/kg | 20 | 68.8 µg/mL (≈ 177 µM) | 0.117 | – |
| CS(=O)(=O)N1CCc2cc(C(=O)NCCOc3ccc4ccccc4c3)ccc21 | – | – | 1.68 | 0.44 µg/mL (≈ 1.07 µM) | – | – |
| NCCOc1cccc(CC(=O)N2CCCN(C(=O)C3CCC3)CC2)c1 | ≤ 4.74 mL/min/kg | ≤ 10.7 mL/min/kg | 5.51 | – | – | – |
| Nc1ccccc1-c1nc(C2CCCCCC2)no1 | 47.7 mL/min/kg | 1310 mL/min/kg | – | – | – | – |
| CS(=O)(=O)CCNc1ccc2ccc(F)cc2n1 | 15.6 mL/min/kg | 76.4 mL/min/kg | 0.652 | 53.5 µg/mL (≈ 199 µM) | – | – |
| Cc1ncccc1CNc1nnc(C(C)(C)C)s1 | ≤ 4.74 mL/min/kg | 19.3 mL/min/kg | 1.28 | 40.9 µg/mL (≈ 156 µM) | – | – |
| CC(C)N(C)S(=O)(=O)N1CCC(CNC(=O)CCCn2cccn2)CC1 | 16.3 mL/min/kg | 285 mL/min/kg | 57.9 | – | – | – |
| CN(CC(=O)NC1CC1)C(=O)C1C2CC3CC(C2)CC1C3 (centres undefined) | 21.7 mL/min/kg | 463 mL/min/kg | 1.58 | 50.8 µg/mL (≈ 175 µM) | – | – |
| CC(C)(C)c1cc(NS(=O)(=O)c2cccc(F)c2)cc(C(C)(C)C)c1 | 10 mL/min/kg | 306 mL/min/kg | – | – | – | – |
| N#CCN(C(=O)c1cn(-c2ccc(Br)cc2)cn1)C1CC1 | ≤ 4.74 mL/min/kg | 57.3 mL/min/kg | 1.04 | 65.3 µg/mL (≈ 189 µM) | – | – |
| CC1(C)CC(Oc2ccc(-c3ccc(-c4cn[nH]c4)cc3O)nn2)CC(C)(C)N1 | – | – | – | 12.9 µg/mL (≈ 32.8 µM) | – | – |
| CCCNC(=O)C1(NCc2cncnc2)CCCCC1 | 43.2 mL/min/kg | 127 mL/min/kg | 7.46 | – | – | – |
| COc1ccccc1/C=C/CN1C[C@H]2CCCN2C[C@@H]1C | 16.8 mL/min/kg | 1450 mL/min/kg | 0.741 | – | – | – |
| CC1(C)Oc2ccc(Cl)cc2[C@@H]2O[C@@H]3CCNC[C@@H]3C[C@H]21 | ≤ 4.74 mL/min/kg | 103 mL/min/kg | 11.3 | 42.5 µg/mL (≈ 138 µM) | – | – |

Results, then the molecule that gave them:

| intrinsic clearance, human liver microsomes | intrinsic clearance, rat liver microsomes | MDR1-MDCK efflux ratio | aqueous solubility | fraction unbound, human plasma | fraction unbound, rat plasma | Compound |
| --- | --- | --- | --- | --- | --- | --- |
| 226 mL/min/kg | 2310 mL/min/kg | – | – | – | – | CCCCNc1nc2c(cc1C#N)CCC2 |
| ≤ 4.74 mL/min/kg | ≤ 10.7 mL/min/kg | 9.44 | 113 µg/mL (≈ 333 µM) | – | – | CC(=O)N1CCN(C(=O)[C@H]2CCCCN2C(=O)OC(C)(C)C)CC1 |
| 21.3 mL/min/kg | – | 0.659 | – | 0.312 | – | CNc1nc(C)cc(C(=O)Nc2ccc3[nH]ncc3c2)n1 |
| ≤ 4.74 mL/min/kg | ≤ 10.7 mL/min/kg | 3.54 | 60 µg/mL (≈ 181 µM) | – | – | Cc1nc(N2CCN(C)CC2)nc(C)c1NC(=O)C1CCCCC1 |
| – | – | – | 36.4 µg/mL (≈ 88 µM) | – | – | Cc1cc2c(C(N)=O)cccc2n1-c1nc2c(c(NCc3ccccc3)n1)COCC2 |
| – | – | – | 40.8 µg/mL (≈ 201 µM) | – | – | Cn1cc(C(=O)O)c(-c2cccnc2)n1 |
| ≤ 4.74 mL/min/kg | ≤ 10.7 mL/min/kg | – | – | – | – | N=C(N)NCCCCC(=O)Nc1ccc(C[C@H](NC(=O)[C@@H]2CCCN2S(=O)(=O)c2ccccc2)C(=O)O)cc1 |
| 188 mL/min/kg | 1480 mL/min/kg | 0.798 | 45.5 µg/mL (≈ 154 µM) | – | – | C=CCN(Cc1cccnc1)c1nc(C)nc2sccc12 |
| ≤ 4.74 mL/min/kg | 2240 mL/min/kg | 6.44 | – | – | – | Cc1cccc2ncn(CCc3ncc[nH]3)c(=O)c12 |
| ≤ 4.74 mL/min/kg | ≤ 10.7 mL/min/kg | – | – | – | – | COc1cc(OC)c2c(=O)cc(CCC(=O)O)oc2c1 |
| ≤ 4.74 mL/min/kg | 44.2 mL/min/kg | 0.655 | 38 µg/mL (≈ 146 µM) | – | – | COc1ccnc(N2CC(n3nc(C)cc3C)C2)n1 |
| ≤ 4.74 mL/min/kg | 47.9 mL/min/kg | 1.55 | 31.5 µg/mL (≈ 140 µM) | – | – | O=c1[nH]c2cnccc2n1Cc1ccccc1 |
| ≤ 4.74 mL/min/kg | 848 mL/min/kg | 1.12 | 16.1 µg/mL (≈ 65.5 µM) | – | – | Cc1ccnc(C2CCN(C3CCCC3)CC2)n1 |
| – | – | – | 27.6 µg/mL (≈ 65 µM) | – | – | COc1ccc(-c2ccccc2)c(NS(=O)(=O)c2cc(O)c(Cl)cc2Cl)c1 |
| 1250 mL/min/kg | 3870 mL/min/kg | 1.33 | 66.7 µg/mL (≈ 165 µM) | 0.00599 | 0.0139 | c1ccc(Oc2cccc(CN(CCN3CCOCC3)Cc3cccnc3)c2)cc1 |
